This assay can be described thus: Hydrogel disc shrinking capacity with polycation solutions. The protocol: Hydrogels were made from gelMA A or B, fish GelMA, and/or HAMA and were prepared at different concentrations. GelMA formulations were dissolved whilst stirring in MilliQ water at 37° C. for 2 h. HAMA formulations were dissolved into MilliQ water overnight under agitation. Both HAMA and gelMA solutions were supplemented with 0.1 wt % Irgacure 2959 (Sigma-Aldrich) prior to UV crosslinking. The prepared polymer solutions were cast in circular PDMS molds (diameter: 4.5 cm) and subsequently UV-irradiated (methacrylate conversion was determined to be >95%). Subsequently, a biopsy punch (Integra Miltex, various diameters) was used to cut cylindrical hydrogels of 2 mm in height.
Shrinking agents were dissolved overnight in either phosphate-buffered saline (170 mM of ionic strength, pH 7.4) or diluted or NaCl-supplemented phosphate buffer (17-700 mM ionic strengths, pH 7.4) for up to 2.0 wt %. Cut hydrogels were initially measured using Vernier calipers (standard error=30 μm) to determine their volumes and subsequently incubated in the various shrinking agent solutions (volume: 2 mL, n=3 for every condition). Unless stated otherwise, incubation was done at room temperature. Hydrogel diameter and height were monitored either over time to determine hydrogel shrinking kinetics or after full dehydration had occurred to determine maximum shrinking capacity (typically after 12 h).

In the case of lysozyme, the hydrogel shrinking entry by setting is: (isotonic conditions (170 mM of ionic strength and pH 7.4)) “did not shrink at all”; (reduced ionic strength (85 mM, pH 7.4)) “hydrogel shrinking was observed”.

These data come from patent US20240002786A1, “SHRINKABLE HYDROGELS” (THE BRIGHAM AND WOMEN'S HOSPITAL, INC., priority 2020, published 2024).
